Results on 13 compounds are retold here after patent US20180148418A1, “AMIDO-SUBSTITUTED CYCLOHEXANE DERIVATIVES” (Bayer Pharma Aktiengesellschaft, priority 2015, published 2018).

Bounds are passed on as bounds.

The test system of assay [1] is HEK293 cells cotransfected with the FOP control vector. The assay is described as follows: HEK293 FOP assay (control reporter with non-functional TCF elements). The class given is cell-based. The following applies: 16 hours. As for the experimental part: In a parallel approach, HEK293 cells were cotransfected with the FOP control vector and pcDNA3. The FOP vector is identical to the TOP construct, but it contains instead of functional TCF elements a randomized, non-functional sequence. For this transfection a stable transfected cell line was generated as well, based on selection with Geneticin (1 mg/ml).
(§1) In preparation of the assay, the two cell lines were plated 24 h before beginning the test at 10000 cells per well in a 384 micro titre plate (MTP) in 30 μl growth medium. […] The recombinant human Wnt-3a was thereby applied between 2500 and 5 ng/ml in two-fold dilution steps.
(§2) Selective inhibitory activity for small molecules on the wildtype Wnt pathway was determined after parallel incubation of both (TOP and FOP) HEK293 reporter cell lines with a compound dilution series from 50 μM to 15 nM in steps of 3.16-fold dilutions in CAFTY buffer (130 mM sodium chloride, 5 mM potassium chloride, 20 mM HEPES, 1 mM magnesium chloride, 5 mM sodium bicarbonate, pH 7.4) containing 2 mM Ca^2+ and 0.01% BSA.
(§3) The compounds were thereby serially prediluted in 100% DMSO and thereafter 50 fold into the CAFTY compound dilution buffer (described above).

For assay [2], the system named is wildtype Wnt signaling cascade. The assay is described as follows: HEK293 TOP assay (Super TopFlash luciferase reporter, Wnt-3a stimulated). In kind it is cell-based. As to conditions: HEK293 TOP reporter cells, Wnt3a at EC50, 16 hours.
From the text: 7.1 Measurement of the Inhibitory Activity of Selected Compounds on the Wildtype Wnt Signaling Cascade: HEK293 TOP/FOP Assay
In order to discover and characterize small molecules which inhibit the wildtype Wnt pathway, a cellular reporter assay was employed. The corresponding assay cell was generated by transfection of the mammalian cell line HEK293 (ATCC, #CRL-1573) with the Super TopFlash vector (Morin, Science 275, 1997, 1787-1790; Molenaar et al., Cell 86 (3), 1996, 391-399). The HEK293 cell line is cultivated at 37° C. and 5% CO2 in DMEM (Life Technologies, #41965-039), supplemented with 2 mM glutamine, 20 mM HEPES, 1.4 mM pyruvate, 0.15% Na-bicarbonate and 10% foetal bovine serum (GIBCO, #10270). Stable transfectants were generated by selection with 300 μg/ml Hygromycin.
as §1, §2, §3
A general note: A reporter such as luciferase makes a cellular process visible.

Assay [3] deals with T1, TNKS2 (Homo sapiens, UniProt Q9H2K2).
T1 construct: purchased BPS Bioscience, San Diego, USA 80572 (TNKS2 Histone Ribosylation Assay Kit)
T1 sequence (Q9H2K2 1-1166): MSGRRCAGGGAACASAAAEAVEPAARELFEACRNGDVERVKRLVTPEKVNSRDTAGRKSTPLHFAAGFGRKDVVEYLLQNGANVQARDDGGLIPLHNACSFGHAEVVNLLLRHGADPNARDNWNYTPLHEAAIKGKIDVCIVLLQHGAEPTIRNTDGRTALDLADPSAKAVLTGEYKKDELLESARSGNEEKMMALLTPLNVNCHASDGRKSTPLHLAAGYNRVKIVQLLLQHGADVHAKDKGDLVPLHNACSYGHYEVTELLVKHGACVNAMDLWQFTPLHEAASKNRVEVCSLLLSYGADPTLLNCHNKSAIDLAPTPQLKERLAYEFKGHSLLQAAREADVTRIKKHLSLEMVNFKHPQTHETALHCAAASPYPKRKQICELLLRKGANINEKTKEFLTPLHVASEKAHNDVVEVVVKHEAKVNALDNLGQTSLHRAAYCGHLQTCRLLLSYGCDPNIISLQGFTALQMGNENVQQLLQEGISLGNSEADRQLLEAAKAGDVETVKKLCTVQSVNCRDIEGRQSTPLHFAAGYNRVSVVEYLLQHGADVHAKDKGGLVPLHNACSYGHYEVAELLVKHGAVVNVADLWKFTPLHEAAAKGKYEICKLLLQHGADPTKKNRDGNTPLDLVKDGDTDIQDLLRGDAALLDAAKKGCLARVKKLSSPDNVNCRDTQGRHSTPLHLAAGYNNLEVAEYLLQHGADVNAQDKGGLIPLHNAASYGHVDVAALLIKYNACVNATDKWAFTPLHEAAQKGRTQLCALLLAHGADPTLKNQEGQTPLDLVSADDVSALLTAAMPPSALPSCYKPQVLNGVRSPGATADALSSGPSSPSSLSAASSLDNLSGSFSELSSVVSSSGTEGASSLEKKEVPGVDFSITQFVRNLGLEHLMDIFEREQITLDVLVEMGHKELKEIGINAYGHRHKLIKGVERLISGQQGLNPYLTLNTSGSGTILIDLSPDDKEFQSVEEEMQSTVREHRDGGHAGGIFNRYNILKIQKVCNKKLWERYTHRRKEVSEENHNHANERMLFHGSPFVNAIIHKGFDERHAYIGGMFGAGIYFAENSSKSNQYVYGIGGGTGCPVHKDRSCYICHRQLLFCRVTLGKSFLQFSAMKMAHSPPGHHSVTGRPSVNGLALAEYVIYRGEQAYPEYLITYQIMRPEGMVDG
Kind of assay: TNKS2 Assay B (auto-parsylation, [3H]-NAD+ SPA). In kind it is biochemical. The following applies: 6 nM TNKS2, auto-parsylation, over night at room temperature. As for the experimental part: The potency of selected compounds according to the invention was assessed applying a modified in vitro inhibition assay. Here, the TNKS2 catalyzed NAD^+-dependent ribosylation of the enzyme itself (auto-parsylation) was detected using [^3H]-NAD^+ as substrate and applying the scintillation proximity assay (SPA) method to detect tritium-labeled, parsylated TNKS2. The intensity of the readout signal is proportional to the incorporated [^3H]-NAD^+. Inhibition of TNKS2 leads to a decreased incorporation of [^3H]-NAD^+ and consequently to a lower readout signal intensity. The concentration of a test compound which inhibits the enzyme activity by 50% (corresponds to half of the normed readout signal intensity) is reported as IC50.
Protocol Auto-Parsylation Assay
The assay was conducted in a 96 well MTP format with the identical TNKS2 enzyme sample and NAD^+ sample as in the histone ribosylation assay with the following modifications: TNKS2 enzyme sample was diluted with a modified assay buffer (50 mM MES pH 7.0, 1 mM DTT, 0.01% Triton X-100) to a final concentration of 6 nM TNKS2 and 10×NAD^+ solution was diluted with the modified assay buffer (s. above) to a final 0.445×NAD^+ solution doped with 100 Bq/μl [^3H]-NAD^+[Catalog #NET443H050UC, Perkin Elmer, Waltham, Mass., USA]. Substrate solution (10 μl) was incubated with different test compound concentrations (2.5 μl in 10% DMSO in modified assay buffer) or control (2.5 μl 10% DMSO in modified assay buffer only) and enzyme (10 μl) over night at room temperature. Incorporated tritium was measured after addition of 50 ul SPA beads (1 mg/ml) [Catalog #RPNQ0095 20 mg/ml, Perkin Elmer, Waltham, Mass., USA; diluted 1:10 with Dulbecco's phosphate buffered saline, PBS Catalog #D8537, Sigma-Aldrich, Steinheim, Germany] and detection of the photon emission with a beta count plate reader [Wallac MicroBeta®, Perkin Elmer, Waltham, Mass., USA].

As for `CNC(=O)c1[nH]cnc1C(=O)N[C@H]1CC[C@]2(CC1)CC(O)N(c1ccc(F)cc1Cl)C2=O` (mixture of isomers) [Example 307, N^4-[(trans)-2-(2-chloro-4-fluorophenyl)-3-hydroxy-1-oxo-2-azaspiro[4.5]dec-8-yl]-N^5-methyl-1H-imidazole-4,5-dicarboxamide (mixture of isomers at C3)], the IC50 in assay [1] (Homo sapiens) was at least 50000 nM; in assay [2] (Homo sapiens, HEK293, 16 h), 30 nM.
Consider `CC1C[C@]2(CC[C@@H](NC(=O)c3cnn4cccnc34)CC2)C(=O)N1c1ccc(F)cc1Cl` (mixture of isomers) [Example 355, N-[(trans)-2-(2-chloro-4-fluorophenyl)-3-methyl-1-oxo-2-azaspiro[4.5]dec-8-yl]pyrazolo[1,5-a]pyrimidine-3-carboxamide (mixture of isomers at C3)], for which the IC50 in assay [1] (Homo sapiens) is at least 50000 nM; in assay [3] it was 8.4 nM; in assay [2] (Homo sapiens, HEK293, 16 h), 3.4 nM.
The like results for `Cc1c(C(C)N(C)C)cnc2c(C(=O)N[C@H]3CC[C@@]4(CCN(c5ccc(F)cc5Cl)C4=O)CC3)cnn12` (mixture of isomers) [Example 358, N-[(trans)-2-(2-chloro-4-fluorophenyl)-1-oxo-2-azaspiro[4.5]dec-8-yl]-6-[1-(dimethylamino)ethyl]-7-methylpyrazolo[1,5-a]pyrimidine-3-carboxamide (racemate)] were, in that order, at least 50000 nM, 41 nM and 5.7 nM.
`CC1CC2(CCC(NC(=O)c3cnn4cccnc34)CC2)C(=O)N1c1ccc(F)cc1Cl` (single isomer, unassigned; enantiomer 1) [Example 356, N-[(trans)-2-(2-chloro-4-fluorophenyl)-3-methyl-1-oxo-2-azaspiro[4.5]dec-8-yl]pyrazolo[1,5-a]pyrimidine-3-carboxamide (enantiomer 1)]: the IC50 was at least 50000 nM in assay [1] and 26 nM in assay [2].
Take `CC1CC2(CCC(NC(=O)c3cnn4cccnc34)CC2)C(=O)N1c1ccc(F)cc1Cl` (single isomer, unassigned; enantiomer 2) [Example 357, N-[(trans)-2-(2-chloro-4-fluorophenyl)-3-methyl-1-oxo-2-azaspiro[4.5]dec-8-yl]pyrazolo[1,5-a]pyrimidine-3-carboxamide (enantiomer 2)]: the IC50 is at least 50000 nM in assay [1] and 5.3 nM in assay [2].
`CNC(=O)c1[nH]cnc1C(=O)N[C@H]1CC[C@H](C(=O)Nc2ccc(F)cc2Cl)CC1(F)F` (stereo in doubt) [Example 34, N^4-{(trans)-4-[(2-chloro-4-fluorophenyl)carbamoyl]-2,2-difluorocyclohexyl}-N^5-methyl-1H-imidazole-4,5-dicarboxamide]: the IC50 is at least 50000 nM in assay [1] (Homo sapiens) and 210 nM in assay [2] (Homo sapiens, HEK293, 16 h).
In the same order, the values of `CNC(=O)c1[nH]cnc1C(=O)NC1CCC(C(=O)Nc2ccc(F)cc2Cl)CC1C` (centres unmarked) [Example 38, N^4-{4-[(2-chloro-4-fluorophenyl)carbamoyl]-2-methylcyclohexyl}-N^5-methyl-1H-imidazole-4,5-dicarboxamide] are at least 50000 nM and 440 nM.
`CNC(=O)c1[nH]cnc1C(=O)NC1CCC(C(=O)Nc2ccc(F)cc2Cl)CC1C` (centres unmarked) [Example 40, N^4-{4-[(2-chloro-4-fluorophenyl)carbamoyl]-2-methylcyclohexyl}-N^5-methyl-1H-imidazole-4,5-dicarboxamide]: the IC50 in assay [1] was at least 50000 nM; in assay [2], 460 nM.
As to `O=C(N[C@H]1CC[C@H](C(=O)Nc2c(F)cc(F)cc2Cl)CC1)c1cnn2cccnc12` [Example 131, N-{trans-4-[(2-chloro-4,6-difluorophenyl)carbamoyl]cyclohexyl}pyrazolo[1,5-a]pyrimidine-3-carboxamide], the IC50 in assay [1] (Homo sapiens) is at least 50000 nM; in assay [2] (Homo sapiens, HEK293, 16 h) it was 140 nM.
Take `N#Cc1cc(F)cc(Cl)c1NC(=O)[C@H]1CC[C@H](NC(=O)c2cnn3cccnc23)CC1` [Example 152, N-{trans-4-[(2-chloro-6-cyano-4-fluorophenyl)carbamoyl]cyclohexyl}pyrazolo[1,5-a]pyrimidine-3-carboxamide]: the concentration for half-maximal inhibition (IC50) is at least 50000 nM in assay [1] (Homo sapiens); 140 nM in assay [3]; 91 nM in assay [2] (Homo sapiens, HEK293, 16 h).
On to `CNC(=O)c1nc[nH]c1C(=O)N[C@H]1CC[C@H](C(=O)Nc2snc(C)c2Cl)CC1` [Example 175, N^5-{trans-4-[(4-chloro-3-methyl-1,2-thiazol-5-yl)carbamoyl]cyclohexyl}-N^4-methyl-1H-imidazole-4,5-dicarboxamide], for which the IC50 in assay [1] (Homo sapiens) was 1300 nM; in assay [2] (Homo sapiens, HEK293, 16 h), 1600 nM.
The like results for `CN1CCN(c2ccn3ncc(C(=O)N[C@H]4CC[C@@]5(CCN(c6ccc(F)cc6Cl)C5=O)CC4)c3n2)CC1` [Example 229, N-[(trans)-2-(2-chloro-4-fluorophenyl)-1-oxo-2-azaspiro[4.5]dec-8-yl]-5-(4-methylpiperazin-1-yl)pyrazolo[1,5-a]pyrimidine-3-carboxamide] were, in that order, at least 50000 nM and 57 nM.
In the same order, the values of `Cc1cc(O)n2ncc(C(=O)N[C@H]3CC[C@@]4(CCN(c5ccc(F)cc5Cl)C4=O)CC3)c2n1` [Example 364, N-[(trans)-2-(2-chloro-4-fluorophenyl)-1-oxo-2-azaspiro[4.5]dec-8-yl]-7-hydroxy-5-methylpyrazolo[1,5-a]pyrimidine-3-carboxamide] are at least 50000 nM and 170 nM.

A word on the IC50: it is the concentration that gives 50% inhibition. Low values mean greater potency, high ones weaker potency.
